Experimental data published in patent US12502390B2, “Compositions comprising tigolaner for controlling parasites” ([…], priority 2019, dated 2025).
Like-named read-outs stand apart in the source and are kept apart here.

Columns and labels:
Rhipicephalus sanguineus = Rhipicephalus sanguineus contact test; 1 μg/cm^2; cited from earlier work
Amblyomma hebraeum [1] = details: 100 ppm; cited from earlier work
Boophilus microplus [2] = details: Boophilus microplus injection test; 20 μg/tick; cited from earlier work
Ctenocephalides felis [3] = details: Ctenocephalides felis contact test; 1 μg/cm^2; cited from earlier work
Amblyomma hebraeum [4] = details: Amblyomma hebraeum contact test; 1 μg/cm^2; cited from earlier work
Boophilus microplus [5] = details: Boophilus microplus dip test; 100 ppm; cited from earlier work
Ctenocephalides felis [6] = details: rats, application rate 10 mg/kg, cited from earlier work
Ctenocephalides felis [7] = details: Ctenocephalides felis oral test; 100 ppm; cited from earlier work
Musca domestica = details: 100 ppm; cited from earlier work
Lucilia cuprina = details: 100 ppm; cited from earlier work
Ixodes ricinus = Ixodes ricinus contact test; 1 μg/cm^2; cited from earlier work
[8] = Solubility of tigolaner in solketal (1,2-isopropylideneglycerol); format: physicochemical
From the text: In another embodiment of the composition the solvent component comprises only 1,2-isopropylideneglycerol.

Dermacentor variabilis = details: rats; day 2; application rate 10 mg/kg; cited from earlier work

For `Cn1nc(C(F)(F)C(F)(F)F)c(C(F)(F)F)c1-n1cc(-c2ccc(Cl)c(C(=O)NC3(C#N)CC3)c2)cn1` [Tigolaner], the efficacy (Rhipicephalus sanguineus) is given as 100%, the efficacy (Amblyomma hebraeum [1]) is given as 100% and the efficacy (Boophilus microplus [2]) is given as 100%. For the same compound, the efficacy (Ctenocephalides felis [3]) was 100%, the efficacy (Amblyomma hebraeum [4]) was 100% and the efficacy (Boophilus microplus [5]) was 100%. For the same compound, the efficacy against fleas (Ctenocephalides felis [6]; day 2) was > 95%, the efficacy against fleas (Ctenocephalides felis [6]; day 9) was > 90% and the efficacy (Ctenocephalides felis [7]) was 100%. The efficacy (Musca domestica) was 100%, the efficacy (Lucilia cuprina) was 100% and the efficacy (Ixodes ricinus) was 100%. For the same compound, the “solubility of tigolaner in solketal in the presence of praziquantel” value ([8]; in the presence of praziquantel, in particular of 7.5 to 8.5% w/w of praziquantel) was “more than 10.5 % w/w”, the “effect of lactic acid on solubility of tigolaner in 1,2-isopropylideneglycerol” value ([8]; presence of lactic acid) was “slightly lowers the solubility” and the “solubility of tigolaner in solketal alone” value ([8]; solketal alone) was 9.5-9.9 % w/w. The “efficacy against tick nymphs” value (Dermacentor variabilis) was > 90%.
